Experiments:
[1] = molecular target: Tubulin alpha chain (Sus scrofa) (UniProt P02550); experiment: Compound was tested for effective concentration for tubulin polymerization expressed as ratio of compound relative to taxol (EC0.01 at 5 uM); format: functional
HCT-116 = experiment: Compound was tested for inhibition of proliferation of human colon cancer cell line (HCT116); format: functional, cell-based

Sequence of Tubulin alpha chain (Sus scrofa) (P02550 whole entry, looked up): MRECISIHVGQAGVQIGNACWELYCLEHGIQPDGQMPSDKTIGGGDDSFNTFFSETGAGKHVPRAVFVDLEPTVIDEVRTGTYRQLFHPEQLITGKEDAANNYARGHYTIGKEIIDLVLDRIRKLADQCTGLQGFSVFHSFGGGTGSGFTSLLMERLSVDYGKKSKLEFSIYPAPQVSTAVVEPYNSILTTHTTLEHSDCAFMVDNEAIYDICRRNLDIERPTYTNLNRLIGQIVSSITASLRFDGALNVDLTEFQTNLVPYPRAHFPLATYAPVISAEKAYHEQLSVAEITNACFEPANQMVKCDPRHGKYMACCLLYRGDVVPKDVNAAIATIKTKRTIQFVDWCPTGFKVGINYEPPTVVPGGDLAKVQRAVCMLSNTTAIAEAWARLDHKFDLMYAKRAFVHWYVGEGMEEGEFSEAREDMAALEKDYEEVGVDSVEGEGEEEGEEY

**Q.** Which results are given for `CC(=O)O[C@H]1C(=O)[C@@]2(C)C([C@H](OC(=O)C3CCCCC3)[C@]3(O)C[C@H](OC(=O)[C@H](O)[C@@H](NC(=O)c4ccccc4)c4ccccc4)C(C)=C1C3(C)C)[C@]1(OC(C)=O)CO[C@@H]1C[C@@H]2O` (some centres not stated)?
**A.** Ratio [1]: 130; IC50 (HCT-116): > 91 nM

**Q.** How did the Ratio [1] turn out when `CC(=O)O[C@H]1C(=O)[C@@]2(C)C([C@H](OC(=O)c3ccc([N+](=O)[O-])cc3)[C@]3(O)C[C@H](OC(=O)[C@H](O)[C@@H](NC(=O)c4ccccc4)c4ccccc4)C(C)=C1C3(C)C)[C@]1(OC(C)=O)CO[C@@H]1C[C@@H]2O` (some centres not stated) was run?
**A.** The Ratio was > 250.

**Q.** What about the IC50 (HCT-116) of the same molecule?
**A.** The IC50 was > 85 nM.

**Q.** `COc1ccc(C(=O)O[C@H]2C3[C@](C)(C(=O)[C@H](OC(C)=O)C4=C(C)[C@@H](OC(=O)[C@H](O)[C@@H](NC(=O)c5ccccc5)c5ccccc5)C[C@]2(O)C4(C)C)[C@@H](O)C[C@H]2OC[C@@]32OC(C)=O)cc1` (some centres not stated) was tested. Which Ratio [1] did it give?
**A.** The Ratio was > 250.

**Q.** What about the IC50 (HCT-116) of the same molecule?
**A.** The IC50 was > 88 nM.

**Q.** `CC(=O)O[C@H]1C(=O)[C@@]2(C)[C@H]([C@H](OC(=O)c3ccccc3)[C@]3(O)C[C@H](OC(=O)[C@H](O)[C@@H](NC(=O)c4ccccc4)c4ccccc4)C(C)=C1C3(C)C)[C@]1(OC(C)=O)CO[C@@H]1C[C@@H]2O` [PACLITAXEL] was tested. Which IC50 (HCT-116) did it give?
**A.** Its IC50 is 2 nM.
